Data on 4 molecules can be found in ChEMBL document CHEMBL4406917, “Approaches for Prevention and Treatment of Neurodegenerative Diseases: ALS and Alzheimer's” (ACS Med Chem Lett, 2019).

≈ marks a conversion by molar mass, not a printed value.

The nature of series [1]: Toxicity in SOD1-G93A mutant-induced ALS C57BL/6 mouse model assessed as effect on animal survival at 50 mg/kg, ip. It counts as organism-based. As to conditions: in vivo; call rule not given here.
The nature of series [2]: Drug uptake in brain of SOD1-G93A mutant-induced ALS C57BL/6 mouse model at 50 mg/kg, ip measured within 30 mins. Format: ADME, organism-based. Particulars: in vivo, 0.5 h.
Series [3] is described as follows: Drug uptake in plasma of SOD1-G93A mutant-induced ALS C57BL/6 mouse model at 50 mg/kg, ip measured within 30 mins. As to conditions: in vivo, 0.5 h. Format: ADME, organism-based.
The test system of series [4] is SH-SY5Y. Nature of the series: (§1) Activation of NF-KappaB (unknown origin) expressed in SH-SY5Y cells co-transfected with pNFkappaB-Luc plasmid measured after 24 hrs by Bright-Glo luciferase assay. Format: cell-based. Particulars: Homo sapiens.
A short description of series [5]: as §1. Particulars: Homo sapiens. Format: cell-based.
Series [6] in a line: Kinetic solubility of compound at pH 7.4 by shake flask method. Format: physicochemical. As to conditions: buffer, read-out: Kinetic_solubility.

The EC50 is the concentration giving half of the maximal effect. On to `Cc1cccnc1Nc1nc(-c2ccccn2)cs1`, for which the Activity result in series [1] is “Non-Toxic”. Also, the Drug uptake result in series [2] and in series [3] was “Active” each time. For the same molecule, in series [4], the ECmax came to 40 µM. The molecule further showed an EC50 in series [5] of 210 nM.

On to `O=C(/C=C\Nc1ccccc1Br)c1ccc2c(c1)OCO2`, for which the Activity result in series [1] is “Non-Toxic”. The Drug uptake result in series [2] and in series [3] was “Active” throughout. In addition, in series [4], the ECmax came out at 26 µM. The molecule also yielded an EC50 in series [5] of 500 nM.

Consider `COC(=O)c1ccc(-c2cnc(Nc3c(F)cccc3F)o2)cc1`, for which, in series [4], the ECmax came to 42.6 µM.

`O=C(O)c1cccc(-c2cnc(Nc3ccccc3F)o2)c1`: in series [6], the solubility kinetic came to 56 µM (≈ 16.7 µg/mL). For the same molecule, the ECmax in series [4] amounted to 23.5 µM.
